Measurements as given in publication PMC11864979, “First-in-class ultralong-target-residence-time p38α inhibitors as a mitosis-targeted therapy for colorectal cancer” (Nature Cancer, 2025).
Where “and” joins values, the source holds several entries; their conditions need not be identical. Equal values may be shown once.

Columns and labels:
PDO11 = test: cell viability in patient-derived CRC organoids PDO11; assay type: cell-based, human
Description: (§1) For in vitro treatment studies, organoids were mechanically dissociated and digested using TrypLE supplemented with 100 µg ml^−1 DNaseI and 10.5 µM Y-27632 dihydrochloride (Invitrogen) at 37 °C. A total of 1,000–2,000 single cells were plated per well in white 96-well plates (Greiner) in culture medium containing 10% GFR Matrigel or Cultrex BME. The treatment with doxycycline (5 µg ml^−1), pharmacological inhibitors or corresponding volumes of DMSO was started 24 h after plating. Doxycycline was obtained from Sigma-Aldrich. […] Cell viability was measured by means of CellTiter-Glo 3D or CellTiter-Glo 2.0 reagent (Promega) according to the manufacturers’ instructions and the Infinite M Plex reader (Tecan, i-control version 3.9.1 software). Results were normalized to vehicle (DMSO) or to shNC. For cell-doubling assays, the cell number was quantified at the corresponding time points using Guava EasyCyte flow cytometer (Luminex, CytoSoft v5.2 software).

KAP^2D cells [1] = test: EdU incorporation in KAP^2D cells; assay type: cell-based, mouse; settings: replicates, experiment and repetition
Description: (§2) Immunofluorescence staining on cells and organoids was performed on glass coverslips or tissue culture chambers (Sarstedt). Organoids were plated in medium containing 10% Matrigel or Cultrex BME. The cultures were fixed with 4% paraformaldehyde and stained with specific antibodies and DAPI (Vector Labs). All used antibodies and dilutions are listed in the Nature Portfolio Reporting Summary. For analyzing DNA synthesis, the Molecular Probes Click-iT EdU Alexa Fluor 555 kit was used 24 h after EdU incorporation with DAPI counterstaining. SA-β-Gal staining of cells was performed in cell culture dishes (cells) or tissue culture chambers (organoids) after fixation with 0.5% glutaraldehyde as described above. Human cultures were incubated with X-Gal solution at pH 6.0 for ~4 h.

PDO7 = test: cell viability in patient-derived CRC organoids PDO7; assay type: cell-based, human
Description: as §1

KAP^2D cells [2] = test: P-H3^S10 / α-tubulin staining, mitotic phases in KAP^2D cells; assay type: cell-based, mouse; settings: replicates, experiment and repetition
Description: as §2, with “h. […] Positive cells were quantified using ImageJ version 1.53a software. The analysis of mitosis was performed with an LSM800 Airyscan (Zeiss) microscope (ZEN version 3.0 software). An Airyscan autofilter processing was applied before image analysis.” for “h.”

p38α = p38α (Homo sapiens, UniProt Q16539); test: target residence time (TRT) fluorescence polarization jump-dilution assay; assay type: binding
Description: TRTs were determined using a fluorescence polarization assay kit (Transcreener ADP, BellBrook Labs)[29]. […] The formed complex was ‘jump-diluted’ 1:100 (0.5 µl in 49.5 µl) in a 96-half-area-well plate with ATF2 (82 μM), ATP (40 μM) and ADP as the kinase assay detection reagents. The plate was measured every 3 min for 4 h. Fluorescence polarization was detected using the plate reader VictorNivo (PerkinElmer). The data were analyzed using the integrated rate equation in GraphPad Prism version 7.03 software. The residence time was calculated from the reciprocal value of koff.

subcutaneous KAP CRCs = test: treatment of subcutaneous KAP tumors in wild-type mice; assay type: in vivo, mouse; settings: for Tumor volume (mm³): Fig. 1j, individual tumors
Description: Subcutaneous injection, splenic seeding or cecum injection of organoids was performed in 8–10-week-old C57BL/6 N/Crl, Rag2^−/− (B6.Cg-Rag2^tm1.1Cgn/J), or CB17 Scid beige (CB17.Cg-Prkdc^scidLyst^bg-J/Crl) mice, obtained from Charles River. The organoids were dissociated into single cells, washed with PBS and injected in a 1:1 mixture of PBS and Matrigel. For murine organoids, 1 × 10^5 cells were injected into the left and right flanks or the spleen capsule and 2 × 10^6 cells were injected into the cecum wall. For human organoids, 4 × 10^5 cells were injected into the flanks of CB17 Scid beige mice. For splenic seeding and cecum injection, mice were anaesthetized using ketamine (100 mg kg^−1, intraperitoneally) and xylazin (10 mg/kg, intraperitoneally) in NaCl and a small laparotomy below the thorax was performed.
No mice were excluded during treatment studies.

KAP^2D cells [3] = test: annexin V apoptosis analysis in KAP^2D cells; assay type: cell-based, mouse; settings: Fig. 5a
Description: Apoptosis was analyzed with the FITC annexin V apoptosis detection kit (Biolegend). Both measurements were performed with FACS Canto II (BD) and physical parameters were used to exclude cell debris and cell doublets.

HCT-15 = test: cell viability in human CRC cell line HCT-15; assay type: cell-based; settings: 4 d
Description: To generate KAP^2D cells, KAP organoids were isolated from Matrigel, fragmented by mechanical dissociation and plated without any extracellular matrix on common cell culture dishes. Phoenix-Eco packaging cells (CRL-3214), HCT-15 (CCL-225), HCT 116 (CCL-247), COLO 205 (CCL-222), LS 174T (CL-188), RKO (CRL-2577) and HT-29 (HTB-38) were obtained from the American Type Culture Collection. The cells were cultured at 37 °C and 7% CO2 with RPMI (KAP^2D cells) or DMEM (other cell lines), supplemented with 10% FBS and penicillin–streptomycin. KAP^2D cells were authenticated using PCR (Kras locus and Trp53 locus). Phoenix-Eco packaging cells and HCT-15, HCT 116, COLO 205, LS 174T, RKO and HT-29 cells were authenticated by the provider using short tandem repeat profiling. No commonly misidentified cell lines were used. Mycoplasma contamination was excluded by a PCR-based analysis.
as §1

PDO6 = test: cell viability in patient-derived CRC organoids PDO6; assay type: cell-based, human
Description: as §1

Sequence of p38α (Q16539 whole entry): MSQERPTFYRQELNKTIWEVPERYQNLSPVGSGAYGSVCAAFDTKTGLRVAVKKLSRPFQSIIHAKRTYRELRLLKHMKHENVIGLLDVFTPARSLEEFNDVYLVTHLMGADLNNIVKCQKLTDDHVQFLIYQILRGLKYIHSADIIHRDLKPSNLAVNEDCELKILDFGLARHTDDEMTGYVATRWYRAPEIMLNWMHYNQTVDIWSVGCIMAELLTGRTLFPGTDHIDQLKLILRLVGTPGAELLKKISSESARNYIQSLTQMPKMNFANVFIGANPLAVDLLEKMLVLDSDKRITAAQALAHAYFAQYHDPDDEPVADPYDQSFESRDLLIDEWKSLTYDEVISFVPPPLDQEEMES

Structure (SMILES): O=C(NCCN1CCOCC1)c1ccc2c(c1)C(=O)c1ccc(Nc3ccc(F)c(NC(=O)c4ccccc4)c3)cc1CC2 [Compound 1639]
- Cell viability (%) (PDO11; PDO11, 0.5 µM, 4 d, 0.5 µM): 109.25% and 122.99% and 99.10%
- Cell viability (%) (PDO11; PDO11, 1 µM, 4 days, 1 µM): 102.62% and 119.73% and 93.65%
- EdU+ cells (KAP^2D cells [1]; Fig. 4j): 87.08% and 89.84% and 80.20% and 80.71% and 77.64% and 85.43% and 87.34% and 80.43%
- EdU+ cells (KAP^2D cells [1]; Fig. 5b): 16.24% and 18.58% and 17.71% and 16.69% and 15.27% and 21.79% and 19.62% and 11.52%
- viability at 1 µM (PDO7; Homo sapiens, 96 h, PDO7, 1 µM, 4 days, read-out: Cell viability (%)): 103%
- Cell viability (%) (PDO7; PDO7, 0.5 µM, 4 d, 0.5 µM): 99.28% and 131.17% and 112.30%
- Cell viability (%) (PDO7; PDO7, 1 µM, 4 days, 1 µM): 115.94% and 100.13%
- Anaphase, % (of fully P-H3S10+ cells) (KAP^2D cells [2]; Fig. 4f): 14.94% and 12.77% and 11.59% and 15.15% and 10.11% and 8.57%
- Metaphase, % (of fully P-H3S10+ cells) (KAP^2D cells [2]; Fig. 4f): 17.24% and 21.28% and 8.70% and 19.70% and 24.72% and 20.00%
- Multipolar mitosis, % (of fully P-H3S10+ cells) (KAP^2D cells [2]; Fig. 4f): 9.20% and 12.77% and 8.70% and 9.09% and 10.11% and 8.57%
- Telophase, % (of fully P-H3S10+ cells) (KAP^2D cells [2]; Fig. 4f): 12.64% and 9.57% and 7.25% and 16.67% and 10.11% and 14.29%
- P-H3S10+ cells, fully positive (KAP^2D cells [2]; Fig. 4d): 5.80% and 5.96% and 4.15% and 4.12% and 5.10% and 3.55%
- P-H3S10+ cells, partially positive (KAP^2D cells [2]; Fig. 4d): 8.66% and 7.86% and 7.71% and 7.49% and 8.02% and 8.52%
- TRT (p38α; Fig. 2e, replicates): 191.2 s and 188.8 s and 173.0 s
- TRT (p38α; reciprocal of koff): 184 s
- Tumor volume (subcutaneous KAP CRCs; 0 d of treatment, single tumors, Fig. 3k): 56.0 mm³ and 75.0 mm³ and 48.0 mm³ and 80.0 mm³ and 62.5 mm³ and 40.0 mm³ and 64.0 mm³
- subcutaneous KAP tumor development (in words) (subcutaneous KAP CRCs; 20 mg kg^−1 daily, oral gavage): decelerated CRC development
- Tumor volume (mm³) (subcutaneous KAP CRCs; day 0 of treatment): 56.0 mm³ (2×) and 75.0 mm³ and 48.0 mm³ (3×) and 80.0 mm³ and 62.5 mm³ and 40.0 mm³ and 64.0 mm³
- Tumor volume (mm³) (subcutaneous KAP CRCs; day 2 of treatment): 75.0 mm³ (2×) and 87.5 mm³ and 62.5 mm³ and 125.0 mm³ and 56.0 mm³ (2×) and 72.0 mm³ and 48.0 mm³ and 64.0 mm³
- Tumor volume (mm³) (subcutaneous KAP CRCs; day 4 of treatment): 126.0 mm³ (2×) and 64.0 mm³ and 125.0 mm³ and 72.0 mm³ and 75.0 mm³ and 62.5 mm³ (2×) and 80.0 mm³ and 100.0 mm³
- Tumor volume (mm³) (subcutaneous KAP CRCs; day 6 of treatment): 144.0 mm³ (2×) and 75.0 mm³ (2×) and 112.5 mm³ and 80.0 mm³ and 62.5 mm³ and 56.0 mm³ and 87.5 mm³ and 126.0 mm³
- Tumor volume (mm³) (subcutaneous KAP CRCs; day 8 of treatment): 144.0 mm³ (2×) and 162.0 mm³ and 87.5 mm³ (2×) and 112.5 mm³ and 75.0 mm³ (3×) and 100.0 mm³
- Tumor volume (mm³) (subcutaneous KAP CRCs; day 10 of treatment): 162.0 mm³ and 180.0 mm³ and 87.5 mm³ (4×) and 108.0 mm³ (2×) and 75.0 mm³ and 171.5 mm³
- Tumor volume (mm³) (subcutaneous KAP CRCs; day 12 of treatment): 180.0 mm³ (2×) and 220.5 mm³ and 112.5 mm³ (3×) and 100.0 mm³ and 108.0 mm³ and 64.0 mm³ and 126.0 mm³
- Annexin V+ cells (KAP^2D cells [3]; 1 d of treatment): 8.73% and 12.40% and 11.20% and 14.50% and 15.70% and 14.40%
- Annexin V+ cells (KAP^2D cells [3]; 2 d of treatment): 12.80% and 17.60% and 14.40% and 15.50% and 16.80% and 17.40%
- Annexin V+ cells (KAP^2D cells [3]; 3 d of treatment): 16.10% and 14.80% and 15.90% and 19.00% and 17.40% and 18.40%
- Annexin V+ cells (KAP^2D cells [3]; 4 d of treatment): 26.70% and 25.10% and 21.50% and 18.80% and 17.30% and 19.40%
- HCT-15 Cell viability (%) (HCT-15; 0.0137 µM): 92.80% and 91.50% and 85.00% and 82.22% and 80.95%
- HCT-15 Cell viability (%) (HCT-15; 0.0412 µM): 78.90% and 80.07% and 94.65% and 93.32% and 92.61%
- HCT-15 Cell viability (%) (HCT-15; 0.1235 µM): 84.07% and 87.40% and 91.28% and 90.94% and 89.46%
- HCT-15 Cell viability (%) (HCT-15; 0.3704 µM): 84.12% and 88.83% and 87.00% and 85.77% and 86.10%
- HCT-15 Cell viability (%) (HCT-15; 1.1111 µM): 77.30% and 80.39% and 72.06% and 72.72% and 71.41%
- HCT-15 Cell viability (%) (HCT-15; 3.3333 µM): 62.02% and 64.03% and 55.98% and 56.04% and 55.89%
- HCT-15 Cell viability (%) (HCT-15; 10.0000 µM): 36.90% and 37.04% and 27.63% and 27.72% and 28.84%
- viability at 0.0137 µM (HCT-15; Homo sapiens, HCT-15, 96 h, 0.0137 µM, read-out: HCT-15 Cell viability (%)): 95.1%
- viability at 0.0412 µM (HCT-15; Homo sapiens, HCT-15, 96 h, 0.0412 µM, read-out: HCT-15 Cell viability (%)): 77.5%
- viability at 0.1235 µM (HCT-15; Homo sapiens, HCT-15, 96 h, 0.1235 µM, read-out: HCT-15 Cell viability (%)): 82.6%
- viability at 0.3704 µM (HCT-15; Homo sapiens, HCT-15, 96 h, 0.3704 µM, read-out: HCT-15 Cell viability (%)): 80.4%
- viability at 1.1111 µM (HCT-15; Homo sapiens, HCT-15, 96 h, 1.1111 µM, read-out: HCT-15 Cell viability (%)): 74%
- viability at 3.3333 µM (HCT-15; Homo sapiens, HCT-15, 96 h, 3.3333 µM, read-out: HCT-15 Cell viability (%)): 56.5%
- viability at 10 µM (HCT-15; Homo sapiens, HCT-15, 96 h, 10.0000 µM, read-out: HCT-15 Cell viability (%)): 36.6%
- viability at 1 µM (PDO6; Homo sapiens, 96 h, PDO6, 1 µM, 4 days, read-out: Cell viability (%)): 88.1%
- Cell viability (%) (PDO6; PDO6, 0.5 µM, 4 d, 0.5 µM): 89.33% and 120.75% and 95.55%
- Cell viability (%) (PDO6; PDO6, 1 µM, 4 days, 1 µM): 103.21% and 96.02%
